{"source": "patent US20250332201A1", "about": "“PHARMACEUTICAL COMPOSITION, MEGASPHAERA, AND USE THEREOF” (MOON (GUANGZHOU) BIOTECH CO., LTD., priority 2022, published 2025)", "key": {"strain MNH05026": {"tested_on": "strain MNH05026", "assay": "Antibiotic sensitivity test, disk diffusion method", "assay_type": "cell-based, Megasphaera sp.", "procedure": "(§1) Antibiotic sensitivity tests of the strains MNH05026, MNH22004, and MNH27256: Antibiotic sensitivity tests were carried out on the strains MNH05026, MNH22004, and MNH27256 by a disk diffusion method."}, "strain MNH27256": {"tested_on": "strain MNH27256", "assay": "Antibiotic sensitivity test, disk diffusion method", "assay_type": "cell-based, Megasphaera sp.", "procedure": "as §1"}, "strain MNH22004": {"tested_on": "strain MNH22004", "assay": "Antibiotic sensitivity test, disk diffusion method", "assay_type": "cell-based, Megasphaera sp.", "procedure": "as §1"}, "[1]": {"tested_on": "mice with NAFLD/NASH induced by a high-fat, high-carbohydrate, and high-cholesterol diet", "assay": "NAFLD/NASH mouse model (high-fat, high-carbohydrate, high-cholesterol diet), strains combined with Semaglutide (Example 9)", "assay_type": "in vivo, C57BL/6J mice", "procedure": "3) Controls: PBS-Cys containing 25% glycerol PBS-Cys was used as a negative control; and Semaglutide was used as a positive control.\nAdministration was initiated after the grouping (D1). The negative control group was given the negative control (PBS-Cys) by gavage, 0.2 mL/mouse, twice a day; the positive control group was given Semaglutide by subcutaneous injection, at a dose of 30 nmol/kg, once every 3 days; and the combined treatment group was given Semaglutide (at a dose and frequency of use the same as those in the positive control group) and the corresponding bacterial solution (0.2 mL/mouse, twice a day) by gavage. The experimental period was 60 days. […] During the experiment, one general clinical observation was conducted after the end of each dosing. The animals were weighed twice a week during the dosing, and before dissection at the experimental endpoint. The endpoint of this experiment was the day following the end of dosing (D61). The animals were dissected and sampled according to the protocol at the experimental endpoint, and the data were summarized to analyze the results. […] Statistical analysis was performed using One-Way ANOVA with Dunnett's multiple comparison test.\nRelevant experiments were conducted for the strains MNH05026, MNH22004, and MNH27256 using the methods as described in 1) to 4) above."}}}
{"compound": "CC1(C)S[C@@H]2[C@H](NC(=O)[C@H](N)c3ccccc3)C(=O)N2[C@H]1C(=O)O", "note": "[Ampicillin]", "values": [{"measurement": "Sensitivity or resistance of strain MNH05026 to the antibiotic", "setting": "strain MNH05026", "value": "sensitive"}, {"measurement": "Sensitivity or resistance of strain MNH27256 to the antibiotic", "setting": "strain MNH27256", "value": "resistant"}, {"measurement": "Sensitivity or resistance of strain MNH22004 to the antibiotic", "setting": "strain MNH22004", "value": "resistant"}]}
{"compound": "CO/N=C(\\C(=O)N[C@@H]1C(=O)N2C(C(=O)O)=C(CSc3nc(=O)c(=O)[nH]n3C)CS[C@H]12)c1csc(N)n1", "note": "[Ceftriaxone]", "values": [{"measurement": "Sensitivity or resistance of strain MNH05026 to the antibiotic", "setting": "strain MNH05026", "value": "sensitive"}, {"measurement": "Sensitivity or resistance of strain MNH27256 to the antibiotic", "setting": "strain MNH27256", "value": "resistant"}, {"measurement": "Sensitivity or resistance of strain MNH22004 to the antibiotic", "setting": "strain MNH22004", "value": "sensitive"}]}
{"compound": "O=C(N[C@H](CO)[C@H](O)c1ccc([N+](=O)[O-])cc1)C(Cl)Cl", "note": "[Chloramphenicol]", "values": [{"measurement": "Sensitivity or resistance of strain MNH05026 to the antibiotic", "setting": "strain MNH05026", "value": "sensitive"}, {"measurement": "Sensitivity or resistance of strain MNH27256 to the antibiotic", "setting": "strain MNH27256", "value": "sensitive"}, {"measurement": "Sensitivity or resistance of strain MNH22004 to the antibiotic", "setting": "strain MNH22004", "value": "sensitive"}]}
{"compound": "O=C(O)c1cn(C2CC2)c2cc(N3CCNCC3)c(F)cc2c1=O", "note": "[Ciprofloxacin]", "values": [{"measurement": "Sensitivity or resistance of strain MNH05026 to the antibiotic", "setting": "strain MNH05026", "value": "sensitive"}, {"measurement": "Sensitivity or resistance of strain MNH27256 to the antibiotic", "setting": "strain MNH27256", "value": "sensitive"}, {"measurement": "Sensitivity or resistance of strain MNH22004 to the antibiotic", "setting": "strain MNH22004", "value": "sensitive"}]}
{"compound": "CC[C@H]1OC(=O)[C@H](C)[C@@H](O[C@H]2C[C@@](C)(OC)[C@@H](O)[C@H](C)O2)[C@H](C)[C@@H](O[C@@H]2O[C@H](C)C[C@H](N(C)C)[C@H]2O)[C@](C)(O)C[C@@H](C)C(=O)[C@H](C)[C@@H](O)[C@]1(C)O", "note": "[Erythromycin]", "values": [{"measurement": "Sensitivity or resistance of strain MNH05026 to the antibiotic", "setting": "strain MNH05026", "value": "sensitive"}, {"measurement": "Sensitivity or resistance of strain MNH27256 to the antibiotic", "setting": "strain MNH27256", "value": "sensitive"}, {"measurement": "Sensitivity or resistance of strain MNH22004 to the antibiotic", "setting": "strain MNH22004", "value": "sensitive"}]}
{"compound": "CCC[C@@H]1C[C@@H](C(=O)N[C@@H]([C@H]2O[C@H](SC)[C@H](O)[C@@H](O)[C@H]2O)[C@@H](C)O)N(C)C1", "note": "[Lincomycin]", "values": [{"measurement": "Sensitivity or resistance of strain MNH05026 to the antibiotic", "setting": "strain MNH05026", "value": "sensitive"}, {"measurement": "Sensitivity or resistance of strain MNH27256 to the antibiotic", "setting": "strain MNH27256", "value": "sensitive"}, {"measurement": "Sensitivity or resistance of strain MNH22004 to the antibiotic", "setting": "strain MNH22004", "value": "sensitive"}]}
{"compound": "Gentamicin", "values": [{"measurement": "Sensitivity or resistance of strain MNH05026 to the antibiotic", "setting": "strain MNH05026", "value": "sensitive"}, {"measurement": "Sensitivity or resistance of strain MNH27256 to the antibiotic", "setting": "strain MNH27256", "value": "sensitive"}, {"measurement": "Diameter of inhibition zone by MNH22004", "setting": "strain MNH22004", "value": 9.00, "unit": "mm"}, {"measurement": "Sensitivity or resistance of strain MNH22004 to the antibiotic", "setting": "strain MNH22004", "value": "sensitive"}]}
{"compound": "Penicillin", "values": [{"measurement": "Sensitivity or resistance of strain MNH05026 to the antibiotic", "setting": "strain MNH05026", "value": "sensitive"}, {"measurement": "Diameter of inhibition zone by MNH27256", "setting": "strain MNH27256", "value": 0, "unit": "mm"}, {"measurement": "Sensitivity or resistance of strain MNH27256 to the antibiotic", "setting": "strain MNH27256", "value": "resistant"}, {"measurement": "Diameter of inhibition zone by MNH22004", "setting": "strain MNH22004", "value": 0, "unit": "mm"}, {"measurement": "Sensitivity or resistance of strain MNH22004 to the antibiotic", "setting": "strain MNH22004", "value": "resistant"}]}
{"compound": "Semaglutide", "values": [{"measurement": "fasting blood glucose", "setting": "[1]; Day 30 of oral glucose tolerance test", "value": "no significant effect"}, {"measurement": "body weight, 1 d", "setting": "[1]; day 1, in g (unit assumed)", "value": 45.97}, {"measurement": "body weight, 33 d", "setting": "[1]; day 33, in g (unit assumed)", "value": 36.18}, {"measurement": "weight gain value", "setting": "[1]; day 33 of intervention", "value": "−21.30", "unit": "%"}, {"measurement": "body weight, 36 d", "setting": "[1]; day 36, in g (unit assumed)", "value": 35.94}, {"measurement": "body weight, 41 d", "setting": "[1]; day 41, in g (unit assumed)", "value": 35.98}, {"measurement": "body weight, 44 d", "setting": "[1]; day 44, in g (unit assumed)", "value": 36.34}, {"measurement": "body weight, 48 d", "setting": "[1]; day 48, in g (unit assumed)", "value": 37.02}, {"measurement": "body weight, 51 d", "setting": "[1]; day 51, in g (unit assumed)", "value": 37.26}, {"measurement": "body weight, 54 d", "setting": "[1]; day 54, in g (unit assumed)", "value": 36.84}, {"measurement": "body weight, 58 d", "setting": "[1]; day 58, in g (unit assumed)", "value": 38.09}, {"measurement": "body weight, 60 d", "setting": "[1]; day 60, in g (unit assumed)", "value": 36.67}]}
{"compound": "Trimethoprim-sulfamethoxazole", "values": [{"measurement": "Sensitivity or resistance of strain MNH05026 to the antibiotic", "setting": "strain MNH05026", "value": "sensitive"}, {"measurement": "Sensitivity or resistance of strain MNH27256 to the antibiotic", "setting": "strain MNH27256", "value": "sensitive"}, {"measurement": "Sensitivity or resistance of strain MNH22004 to the antibiotic", "setting": "strain MNH22004", "value": "sensitive"}]}
